Experimental data published in patent US12414567B2, “Wear resistant antimicrobial compositions and methods of use” (ECOLAB USA INC., priority 2010, dated 2025).

Test system: MatTek EpiOcular ocular tissues
Test: MatTek EpiOcular model ocular irritation (MTT cell viability, Example 16)
Type: cell-based
Details: positive control, 10%, all exposure times (5-60 minutes)
Description: Each of these compositions was diluted at a rate of 2 oz/gal before they were tested using the Epioccular model.
The MatTek EpiOcular™ model can be used to assess the potential ocular irritation of test articles by determining the cell viability of the tissue after exposure to the test articles. The objective of this study was to assess the ocular irritation potential of 1.56% (w/w) 12837.36.1. Control and test article exposure times were 5 minutes, 10 minutes, 20 minutes, 40 minutes and 60 minutes. After the exposures MTT was performed and data was normalized to the negative control, sterile ultrapure water (water purified and deionized˜18.2 MΩ-cm). The positive control, 10% benzalkonium chloride (BC), was effective, reducing cell viability to <10% of control for all exposure times (Tables 2a-e) and FIG. 1). The relative cell viability of ocular tissues treated with 1.56% (w/w) 12837.36.1 was 29.7%, 26.8%, 15.3%, 8.9% and 8.0% after 5, 10, 20, 40 and 60 minute exposures, respectively (Tables 2a-e and FIG. 1), resulting in an ET50 of 1.54 minutes and an estimated in vivo Draize score of 77.2 (Table 1).
The MatTek EipOcular™ model can be used to assess the potential ocular irritation of test articles by determining the cell viability of the tissue after exposure to the test articles. The objective of this study was to assess the ocular irritation potential of 1.56% (w/w) 12837.39.1. […]

benzalkonium chloride was tested, and the cell viability was < 10 % of control.
